# Reference: patent US11529436B2, “Engineered three-dimensional skin tissues, arrays thereof, and methods of making the same” (Organovo, Inc., priority 2014, dated 2022)
# Legend:
# Assay type in all cases: cell-based, human
# [1] = test system: bioprinted full thickness skin tissue; test: Lactate dehydrogenase (LDH) activity in media of bioprinted skin tissue, skin irritation test
# From the text: Bio-ink was generated by a cellular mixture of 100% primary adult human dermal fibroblasts (HDFa) in 8% gelatin (NOVOGEL 2.0) at a concentration of 100 million cells per milliliter. The cell: gelatin ratio was altered to reduce the cellular density of the dermal sheet to better mimic dermal tissue in native skin. Three-dimensional bio-ink constructs were printed by continuous deposition using the NOVOGEN BIOPRINTER platform in a 4 mm×4 mm×0.5 mm base to create a dermal structure resembling a sheet. […] The transwell printing surface contained a polytetrafluoroethylene (PTFE) membrane coated with equimolar mixture of types I and III collagen (bovine) with pores 3 μm in size. Epidermal cell paste containing a mixture of 100% primary neonatal human epidermal keratinocytes (HEKn) was then printed on top of the dermal bio-ink. Cell paste was measured post print at 87.1% viable by trypan exclusion assay. Cell numbers in the deposited epidermal layer was estimated at 60,000 cells by cell counting on a Cell-O-Meter. Immediately following the print, constructs were placed at 4° C. for 10 minutes. Cold media was then added to the outer well of the transwell in a volume of 3 ml. The media used for subsequent growth and maintenance of the skin tissue was a 50:50 ratio of HDFa: HEKn media. The initial volume added was sufficient to submerge the structure. All subsequent media changes used warmed media (37° C.) added to the outer well of the transwell and not to the inner basket. Media was changed 48 hours later and reduced to a volume of 1.5 ml per well to bring the structure to an air-liquid interface (ALI). Media and subsequently changed 48 hours after that (day 4) at a volume of 1.5 ml. […] IL-1α production (R&D Systems) was analyzed in a colorimetric assays per manufacturer's protocol. Media was analyzed for lactate dehydrogenase as a marker for cytotoxicity. IL-1α production was assessed as a complementary endpoint to classic cytotoxicity testing to improve predictability of irritants. […] Viability was measured as fluorescence in the media by conversion of resazurin to resorufin. […]
# [2] = test system: bioprinted full thickness skin tissue; test: Histological analysis of bioprinted skin tissue after irritant treatment (H&E, CK5/IVL, CK10, collagen 3, PCNA, TUNEL); details: 1% TRITON X-100, 1 hour exposure
# From the text: (§1) Bio-ink was generated by a cellular mixture of 100% primary adult human dermal fibroblasts (HDFa) in 8% gelatin (NOVOGEL 2.0) at a concentration of 100 million cells per milliliter. The cell: gelatin ratio was altered to reduce the cellular density of the dermal sheet to better mimic dermal tissue in native skin. Three-dimensional bio-ink constructs were printed by continuous deposition using the NOVOGEN BIOPRINTER platform in a 4 mm×4 mm×0.5 mm base to create a dermal structure resembling a sheet. One tissue construct was printed per transwell in a 6-well plate. The transwell printing surface contained a polytetrafluoroethylene (PTFE) membrane coated with equimolar mixture of types I and III collagen (bovine) with pores 3 μm in size. Epidermal cell paste containing a mixture of 100% primary neonatal human epidermal keratinocytes (HEKn) was then printed on top of the dermal bio-ink. Cell paste was measured post print at 87.1% viable by trypan exclusion assay. Cell numbers in the deposited epidermal layer was estimated at 60,000 cells by cell counting on a Cell-O-Meter. Immediately following the print, constructs were placed at 4° C. for 10 minutes. Cold media was then added to the outer well of the transwell in a volume of 3 ml. The media used for subsequent growth and maintenance of the skin tissue was a 50:50 ratio of HDFa: HEKn media. The initial volume added was sufficient to submerge the structure. All subsequent media changes used warmed media (37° C.) added to the outer well of the transwell and not to the inner basket. Media was changed 48 hours later and reduced to a volume of 1.5 ml per well to bring the structure to an air-liquid interface (ALI). Media and subsequently changed 48 hours after that (day 4) at a volume of 1.5 ml. On day 5, media was changed and further reduced to 1 ml per well and subsequently changed daily. On day 10, skin tissues were subject to a skin irritation test method using 1% TRITON X-100. 1% TRITON X-100 is a known irritant and reference chemical currently used in other 3D skin models. Methods were based on OECD guidelines 439 and 431 for applying human skin models to in vitro skin irritation or corrosion, respectively. On day 10, conditioned media was saved (designated time=0) and 1 ml of fresh media was added to the outer well of the transwell. The printed skin tissue was then treated with 20 μl of PBS as a negative control or with 20 μl of 1% TRITON X-100 as a positive control and known irritant. Test substances were pipetted manually to the apical surface of the tissue. TRITON X-100 was diluted to a 1% aqueous solution in deionized water and sterile filtered through a 20 micron filter before use. Samples were incubated for 30 minutes at 37° C. followed by 30 minutes at room temperature for a total of 60 minutes. Media was saved (designated time=1 hour). Samples were then washed extensively by PBS rinsing. Transwells were then placed in a new 6-well plate with fresh media (1 ml) added to the outer well then placed back into 37° C. overnight. The media was then changed at 24 hours and at 48 hours post treatment. Total media collected included time points=−48, 0, 1, 24, and 48 hours. IL-1α production (R&D Systems) was analyzed in a colorimetric assays per manufacturer's protocol. Media was analyzed for lactate dehydrogenase as a marker for cytotoxicity. IL-1α production was assessed as a complementary endpoint to classic cytotoxicity testing to improve predictability of irritants. Keratinocytes normally produce and release inflammatory cytokine IL-1α in response to chemical or physical stress. At 48 hours post treatment (day 12), tissues were either lysed for RNA extraction and subsequent qPCR analysis, or tested for viability by alamar blue assay then rinsed in PBS and fixed with 2% PFA for histological analysis. Alamar blue (Life Technologies) was added per manufacturer's instructions to media and incubated with tissue constructs (1 ml) at 37° C. for 3 hours. […]
# [3] = test system: bioprinted full thickness skin tissue; test: Gene expression (qPCR) analysis of bioprinted skin tissue after irritant treatment; details: 1% TRITON X-100, 1 hour exposure
# From the text: Bio-ink was generated by a cellular mixture of 100% primary adult human dermal fibroblasts (HDFa) in 8% gelatin (NOVOGEL 2.0) at a concentration of 100 million cells per milliliter. The cell: gelatin ratio was altered to reduce the cellular density of the dermal sheet to better mimic dermal tissue in native skin. Three-dimensional bio-ink constructs were printed by continuous deposition using the NOVOGEN BIOPRINTER platform in a 4 mm×4 mm×0.5 mm base to create a dermal structure resembling a sheet. One tissue construct was printed per transwell in a 6-well plate. The transwell printing surface contained a polytetrafluoroethylene (PTFE) membrane coated with equimolar mixture of types I and III collagen (bovine) with pores 3 μm in size. Epidermal cell paste containing a mixture of 100% primary neonatal human epidermal keratinocytes (HEKn) was then printed on top of the dermal bio-ink. Cell paste was measured post print at 87.1% viable by trypan exclusion assay. Cell numbers in the deposited epidermal layer was estimated at 60,000 cells by cell counting on a Cell-O-Meter. Immediately following the print, constructs were placed at 4° C. for 10 minutes. Cold media was then added to the outer well of the transwell in a volume of 3 ml. The media used for subsequent growth and maintenance of the skin tissue was a 50:50 ratio of HDFa: HEKn media. The initial volume added was sufficient to submerge the structure. All subsequent media changes used warmed media (37° C.) added to the outer well of the transwell and not to the inner basket. Media was changed 48 hours later and reduced to a volume of 1.5 ml per well to bring the structure to an air-liquid interface (ALI). Media and subsequently changed 48 hours after that (day 4) at a volume of 1.5 ml. On day 5, media was changed and further reduced to 1 ml per well and subsequently changed daily. On day 10, skin tissues were subject to a skin irritation test method using 1% TRITON X-100. 1% TRITON X-100 is a known irritant and reference chemical currently used in other 3D skin models. Methods were based on OECD guidelines 439 and 431 for applying human skin models to in vitro skin irritation or corrosion, respectively. On day 10, conditioned media was saved (designated time=0) and 1 ml of fresh media was added to the outer well of the transwell. The printed skin tissue was then treated with 20 μl of PBS as a negative control or with 20 μl of 1% TRITON X-100 as a positive control and known irritant. […] IL-1α production (R&D Systems) was analyzed in a colorimetric assays per manufacturer's protocol. Media was analyzed for lactate dehydrogenase as a marker for cytotoxicity. IL-1α production was assessed as a complementary endpoint to classic cytotoxicity testing to improve predictability of irritants. […]
# [4] = test system: bioprinted full thickness skin tissue; test: Viability of bioprinted skin tissue by alamar blue assay, skin irritation test
# From the text: Bio-ink was generated by a cellular mixture of 100% primary adult human dermal fibroblasts (HDFa) in 8% gelatin (NOVOGEL 2.0) at a concentration of 100 million cells per milliliter. The cell: gelatin ratio was altered to reduce the cellular density of the dermal sheet to better mimic dermal tissue in native skin. Three-dimensional bio-ink constructs were printed by continuous deposition using the NOVOGEN BIOPRINTER platform in a 4 mm×4 mm×0.5 mm base to create a dermal structure resembling a sheet. […] The transwell printing surface contained a polytetrafluoroethylene (PTFE) membrane coated with equimolar mixture of types I and III collagen (bovine) with pores 3 μm in size. Epidermal cell paste containing a mixture of 100% primary neonatal human epidermal keratinocytes (HEKn) was then printed on top of the dermal bio-ink. Cell paste was measured post print at 87.1% viable by trypan exclusion assay. Cell numbers in the deposited epidermal layer was estimated at 60,000 cells by cell counting on a Cell-O-Meter. Immediately following the print, constructs were placed at 4° C. for 10 minutes. Cold media was then added to the outer well of the transwell in a volume of 3 ml. The media used for subsequent growth and maintenance of the skin tissue was a 50:50 ratio of HDFa: HEKn media. The initial volume added was sufficient to submerge the structure. All subsequent media changes used warmed media (37° C.) added to the outer well of the transwell and not to the inner basket. Media was changed 48 hours later and reduced to a volume of 1.5 ml per well to bring the structure to an air-liquid interface (ALI). Media and subsequently changed 48 hours after that (day 4) at a volume of 1.5 ml. On day 5, media was changed and further reduced to 1 ml per well and subsequently changed daily. On day 10, skin tissues were subject to a skin irritation test method using 1% TRITON X-100. 1% TRITON X-100 is a known irritant and reference chemical currently used in other 3D skin models. Methods were based on OECD guidelines 439 and 431 for applying human skin models to in vitro skin irritation or corrosion, respectively. On day 10, conditioned media was saved (designated time=0) and 1 ml of fresh media was added to the outer well of the transwell. The printed skin tissue was then treated with 20 μl of PBS as a negative control or with 20 μl of 1% TRITON X-100 as a positive control and known irritant. […] IL-1α production (R&D Systems) was analyzed in a colorimetric assays per manufacturer's protocol. Media was analyzed for lactate dehydrogenase as a marker for cytotoxicity. IL-1α production was assessed as a complementary endpoint to classic cytotoxicity testing to improve predictability of irritants. […] Viability was measured as fluorescence in the media by conversion of resazurin to resorufin. […]
# [5] = test system: bioprinted full thickness skin tissue; test: IL-1α production in media of bioprinted skin tissue (colorimetric assay), skin irritation test
# From the text: as §1, with “One tissue construct was printed per transwell in a 6-well plate.” left out, “Samples were incubated for 30 minutes at 37° C. followed by 30 minutes at room temperature for a total of 60 minutes.” left out, “Transwells were then placed in a new 6-well plate with fresh media (1 ml) added to the outer well then placed back into 37° C. overnight.” left out, “[…] Viability was measured as fluorescence in the media” for “At 48 hours post treatment (day 12), tissues were either lysed for RNA extraction and subsequent qPCR analysis, or tested for viability”, “conversion of resazurin” for “alamar blue assay then rinsed in PBS and fixed with 2% PFA for histological analysis. Alamar blue (Life Technologies) was added per manufacturer's instructions”, “resorufin.” for “media and incubated with tissue constructs (1 ml) at 37° C. for 3 hours.”
# [6] = 48 hours post treatment (day 12)
# [7] = 1% TRITON X-100, 1 hour exposure, 48 hours post treatment
substance,measurement,setting,value
TRITON X-100,induction in LDH activity compared to PBS control,"[1]; 1% TRITON X-100, 1 hour exposure, 6-well format, at 1 hour, 24 hours and 48 hours post treatment",roughly 2 fold
same,LDH activity higher than PBS,"[1]; 15 minute exposure, 5% SDS or 1% TRITON X-100, 24 well plate format, 42 hours post exposure",about 1.4 fold
same,irritancy to bioprinted skin suggested by histology,[2],irritant
same,CK5 positive basal keratinocyte layer,[2]; [6],fragmented
same,Collagen 3 staining compared to the PBS control,[2]; [6],reduction in dermal fibroblast function
same,H&E histology,[2]; [6],separation of the epidermal and dermal layers
same,macroscopic appearance of treated tissues,[2]; [6],appeared similar to PBS control tissues macroscopically
same,proliferation by PCNA staining,"[2]; dermal fibroblasts and basal layer, day 12",reduction in proliferation
same,apoptosis by TUNEL staining,"[2]; dermal layer, day 12",increase in apoptosis
same,CK1 and CK10 gene expression,[3]; 48 hours post exposure,reduced
same,"collagen production of types 1, 3, and 4 collagen (gene expression)",[3]; 48 hours post exposure,reduced
same,expression of both epidermal and dermal markers,[3]; 48 hours post exposure,dramatically reduces
same,IL1α gene expression increase in comparison to the PBS control,[3]; 48 hours post treatment,about 3 fold
same,reduction in viability as compared to the PBS control (alamar blue),[4]; [7],80%
same,viability compared to the PBS control (alamar blue assay),"[4]; 15 minute exposure, 5% SDS or 1% TRITON X-100, 24 well plate format, 42 hours post treatment",68.75%
same,IL-1α levels,"[5]; 1% TRITON X-100, 1 hour exposure, 24 hours post treatment",remained high
same,IL-1α levels,[5]; [7],returned to baseline
same,IL-1α activity in comparison to PBS control,"[5]; 1% TRITON X-100, 1 hour exposure, greatest difference 1 hour post treatment",increased
same,IL-1α production,"[5]; 15 minute exposure, 5% SDS or 1% TRITON X-100, 24 well plate format",induced
